Test results taken from US5849484A, “In vitro assay for inhibitors of the intron self-splicing reaction in Pneumocystis carinii” (University of Medicine & Dentistry of NJ, priority 1995, dated 1998).

What was measured:
[1] = tested on: Group I self-splicing intron (ribozyme) from the 26S rRNA gene of Pneumocystis carinii, isolate Pc1; assay: In vitro self-splicing of the Group I intron, assayed by splicing of [32P]RNA precursor or by [alpha-32P]GTP incorporation; format: biochemical; conditions: for inhibition of splicing at 500 μM: inhibitor at 500 μM; for inhibition of splicing of the 26S rRNA intron: result in words, 5 mM MgCl2, 100 μM GTP unless otherwise indicated, 37° C., 20 minutes; for mode of inhibition (kinetic analysis): relative to GTP/guanosine; for replacement of GTP in the splicing reaction: equal concentrations to GTP
Experimental: Polymerase chain reaction (PCR) amplification (56) of the intron from the 26S rRNA gene and a portion of the 5' and 3' flanking exons (660 nucleotides of amplified rRNA gene), between nucleotides 1963 and 2267 of 26S rRNA of isolate Pc1 was performed with primers 4208 (5'-[…]-3') (SEQ ID NO:33), whose first 17 nucleotides are a bacteriophage SP6 promoter (57), and 4358 (5'-GACGAGGCATTTGGCTACC-3') (SEQ ID NO:35) in a DNA Thermal Cycler (Perkin-Elmer-Cetus), under conditions recommended by the manufacturer. For some experiments a longer PCR product (1296 nucleotides of amplified rRNA gene) was generated by similar methods, using primers 4208 and 3734 (5'-[…]-3') to amplify the region between nucleotides 1963 and 2903 of 26S rRNA. Transcription of PCR product DNA (1 μg) by SP6 RNA polymerase to produce E1-I-E2 RNA precursor (1296 or 660 nucleotides in length) was carried out using the Riboprobe System II (Promega) under the recommended conditions.
Radioactive RNA precursor (1296 nucleotides, 1 nM) was incubated at 37° C. for 30 minutes in the presence of 50 mM Tris-HCl, pH 7.5, 0.4 mM spermidine, 4 units of RNasin, 100 μM guanosine triphosphate (GTP) and the indicated concentrations of MgCl2 in a volume of 10 μl. Reactions were terminated by addition of 10 μl of 8M urea containing 5 mM Na-EDTA, pH 8.0, and 0.025% each of bromphenol blue and xylene cyanol, followed by heating at 65° C. for 3 minutes and PAGE, with visualization by autoradiography. Lane M contains RNA standards (molecular weights 1.77, 1.52, 1.28, 0.78, 0.53, 0.40, 0.28, and 0.16 kd, BRL), 5'-labeled with ^32 p using bacteriophage T4 polynucleotide kinase (Pharmacia). Lane 1, purified RNA precursor; lane 2, GTP omitted, 5 mM MgCl2; lane 3, no MgCl2, 1 mM EDTA; lanes 4-11, reactions run in the presence of 0, 1, 5, 25, 50, 100, 200 or 500 mM MgCl2, respectively. O indicates origin; P, RNA precursor; I, linear intron; E1-E2, spliced RNA product; C, presumed circularized intron. Bands corresponding to the 5' exon (E1) and G-intron-3' exon (I-E2) are not visible on this exposure.
FIGS. 13A through 13D show the inhibition of intron splicing by antibiotics. All experiments were done with 660 nucleotide RNA precursor. In vitro splicing of [^32 P]RNA precursor was performed in the presence of 5 mM MgCl2 and 100 μM GTP (unless otherwise indicated) at 37° C. for 20 minutes as in FIG. 12. Splicing of unpurified transcripts extracted from SP6 RNA polymerase reactions was performed with 12.5 nM of [α-^32 P]GTP replacing non-radioactive GTP. Bands are identified as in FIG. 12. FIG. 13A: Inhibition by gentamicin and tetracycline. Purified [^32 P]RNA precursor splicing was performed as indicated. Lane 1, control without GTP; lane 2, complete reaction without antibiotics; lanes 3-7, gentamicin present at 50, 100, 200, 250 and 500 μM; lanes 8-12, tetracycline present at 10, 50, 100, 200, and 400 μM. FIG. 13B: Inhibition of intron splicing by gentamicin and tetracycline. Splicing of non-radioactive RNA was assayed in the presence of [^32 P]GTP with no antibiotic (lanes 1 and 7), with 50, 100, 200, 300, and 500 μM gentamicin (lanes 2-6), and with 50, 100, 200, and 400 μM tetracycline (lanes 8-11). FIG. 13C: Splicing inhibition by ethidium bromide. Reactions of [^32 P]RNA precursor were run in the presence of 10 μM GTP (except lane 1 which contained neither GTP nor ethidium bromide); lanes 2-7, reactions run in the presence of ethidium bromide at 0, 0.5, 1, 5, 10, and 25 μM, respectively. […] FIG. 13D: Inhibition of splicing by ethidium bromide, as measured by incorporation of [α-^32 P]GTP. Lanes 1-5, reactions run in the presence of 0, 0.5, 1, 5 and 25 μM ethidium bromide, respectively.
FIGS. 14A and 14B show the inhibition of intron splicing by pentamidine. Reactions were performed as in FIG. 13, with 660 nucleotide RNA precursor. FIG. 14A: Assays of splicing of [^32 P]RNA precursor. […]

Saccharomyces cerevisiae = conditions: grown in glycerol versus fermentable sugars; cited from earlier work
[2] = tested on: Group I self-splicing intron from the 16S rRNA gene of P. carinii; assay: In vitro self-splicing of the intron from the 16S rRNA gene; format: biochemical, Pneumocystis carinii; conditions: result in words
Text: Inhibition by aminoglycosides of splicing of other group I introns has previously been described (55,61). […] Some radioactivity remaining at the gel origin and a decrease in precursor entering the gel in the presence of high levels of gentamicin (FIG. 13A) may reflect RNA binding by the antibiotic. […] This mechanism would be consistent with the lack of inhibition of splicing of group II introns by these agents (55,61).
Alternatively, the paired aromatic rings and/or positively charged moieties of pentamidine might act to distort the intron's secondary structure, which is critical to its catalytic function (63). […] If the ability of pentamidine analogues (49) to inhibit splicing correlates with in vivo activity against experimental PCP then this assay would be useful for this purpose.

| Compound | inhibition of splicing at 500 μM [1] | inhibition of splicing of the 26S rRNA intron [1] | further results |
| --- | --- | --- | --- |
| O=C(O)C1=CC(=C(c2ccc(O)c(C(=O)O)c2)c2ccc(O)c(C(=O)O)c2)C=CC1=O [aurintricarboxylic acid] | failed to inhibit splicing by either assay |  |  |
| N=C(N)NCCC[C@H](N)C(=O)O [L-arginine] |  | greater for L-arginine than D-arginine | effect on the first step of the splicing reaction ([1]; kinetic analysis): inhibiting the first step; effect on the second step of the splicing reaction ([1]; kinetic analysis): activate the second step |
| C[C@@H]1C[C@@H]([C@H](O)CC2CC(=O)NC(=O)C2)C(=O)[C@@H](C)C1 [cycloheximide] | failed to inhibit splicing by either assay |  |  |
| COc1ccc(C[C@H](N)C(=O)N[C@H]2[C@@H](O)[C@H](n3cnc4c(N(C)C)ncnc43)O[C@@H]2CO)cc1 [puromycin] | failed to inhibit splicing by either assay |  |  |
| gentamicin |  | inhibited splicing | sensitivity of splicing assayed by incorporation of [α-32P]GTP into I and I-E2 ([1]; compared with splicing of radioactive RNA precursor, 12.5 nM [α-32P]GTP): less sensitive |
| CC[n+]1c(-c2ccccc2)c2cc(N)ccc2c2ccc(N)cc21 [ethidium bromide] |  | completely inhibiting splicing by either assay |  |
| [H]/N=C(/N)N[C@H]1[C@H](O)[C@@H](O)[C@H](O[C@@H]2O[C@@H](C)[C@](O)(C=O)[C@H]2O[C@@H]2O[C@@H](CO)[C@H](O)[C@@H](O)[C@@H]2NC)[C@@H](N/C(N)=N\[H])[C@@H]1O [streptomycin] |  |  | mode of inhibition (kinetic analysis) [1]: competition with guanosine |
| tri-arginine |  |  | potency relative to L-arginine / arginine ([1]; inhibition of splicing): at least 1,000 times |
| CC1(C)S[C@@H]2[C@H](NC(=O)[C@H](N)c3ccccc3)C(=O)N2[C@H]1C(=O)O [Ampicillin] | failed to inhibit |  |  |
| O=C(N[C@H](CO)[C@H](O)c1ccc([N+](=O)[O-])cc1)C(Cl)Cl [chloramphenicol] | failed to inhibit splicing by either assay |  |  |
| CCC[C@@H]1C[C@@H](C(=O)N[C@@H]([C@H]2O[C@H](SC)[C@H](O)[C@@H](O)[C@H]2O)[C@H](C)Cl)N(C)C1 [clindamycin] | failed to inhibit splicing by either assay |  |  |
| Nc1nc2c(ncn2[C@@H]2O[C@H](COP(=O)(O)O)[C@@H](O)[C@H]2O)c(=O)[nH]1 [GMP, guanosine monophosphate] |  |  | replacement of GTP in the splicing reaction [1]: replaceable by equal concentrations |
| Nc1nc2c(ncn2[C@@H]2O[C@H](COP(=O)(O)OP(=O)(O)OP(=O)(O)O)[C@@H](O)[C@H]2O)c(=O)[nH]1 [GTP, guanosine triphosphate] |  |  | Km ([1]; in vitro splicing, 5 mM MgCl2, 37° C.): 3 µM |
| CN[C@@H]1[C@@H](O)[C@@H](O[C@@H]2[C@@H](O)[C@H](O[C@H]3O[C@H]([C@@H](C)O)[C@@H](O)[C@H](O)[C@H]3N)[C@@H](N)C[C@H]2N)OC[C@]1(C)O [G418] | failed to inhibit splicing |  |  |
| N=C(N)NCCC[C@@H](N)C(=O)O [D-arginine] |  | greater for L-arginine than D-arginine |  |
| Nc1nc2c(ncn2[C@@H]2O[C@H](COP(=O)(O)OP(=O)(O)O)[C@@H](O)[C@H]2O)c(=O)[nH]1 [GDP, guanosine diphosphate] |  |  | replacement of GTP in the splicing reaction [1]: replaceable by equal concentrations |
| NC(=O)NCCC[C@H](N)C(=O)O [citrulline] |  | no detectable inhibition |  |
| N=C(N)NCCC[C@H](N)C(=O)O [arginine] |  | inhibited competitively by high concentrations | mode of inhibition (kinetic analysis) [1]: competitively |
| CN(C)C1C(=O)C(C(N)=O)=C(O)C2(O)C(=O)C3=C(O)c4c(O)cccc4C(C)(O)C3CC12 (centres unmarked) [tetracycline] |  | inhibits RNA splicing | mode of inhibition (kinetic analysis) [1]: non-competitive with GTP |
| N=C(N)c1ccc(OCCCCCOc2ccc(C(=N)N)cc2)cc1 [Pentamidine] |  | inhibited splicing | effect on the first step of the splicing reaction ([1]; kinetic analysis): acting on the first step; mode of inhibition (kinetic analysis) [1]: non-competitive; sensitivity of growth to pentamidine (Saccharomyces cerevisiae): more sensitive to pentamidine when grown in glycerol than in various fermentable sugars; inhibition of splicing of the 16S rRNA intron [2]: inhibited splicing |
